Experimental data from patent publication US11759444B2, “Methods for cancer and immunotherapy using prodrugs of glutamine analogs” (The Johns Hopkins University, priority 2015, dated 2023).
Entries after “also recorded” stand apart in the source; their conditions may differ. Where two headings read alike, the source gives them in different places.

What was measured:
[1] = In vitro plasma stability, pig plasma; format: in vitro ADME
[2] = Plasma and CSF pharmacokinetics in swine, i.v. infusion; format: in vivo, Göttingen×Yucutan miniature swine; conditions: 60 min post-administration
[3] = In vitro plasma stability, human plasma
[4] = In vitro plasma stability, mouse plasma
[5] = In vitro plasma stability, dog plasma; format: in vitro ADME
[6] = Plasma and CSF pharmacokinetics in monkeys, i.v.; format: in vivo, pigtail macaques; conditions: monkey
Procedure: All monkey studies were conducted according to protocol (#PR15M298) approved by the Animal Care and Use Committee at Johns Hopkins University. Two female pigtail monkeys (approximately 3.5 kg, non-drug naive) were adjacently housed in stainless steel cages on a social interaction rack (contains 4 cages, each 32.5″ wide×28″ deep×32″ high) maintaining temperature of 64-84° F., humidity of 30-70% with alternating 14-10 hour light/dark cycle as per the USDA Animal Welfare Act (9 CFR, Parts 1, 2, and 3). Food was provided daily in amounts appropriate for the size and age of the animals and RO purified water provided ad libitum through an in-cage lixit valve. Food enrichment was provided Monday through Friday. […]
We have previously published a highly sensitive method for analysis of DON in biological matrices (Alt, et al., 2015). […] The mean predicted […] for back calculated concentrations of the standards and QC's for all analytes were within the range of 85 to 115%, except for the lowest concentration which was within the range of 80 to 120% with an overall accuracy and precision of 6.7% and 6.6% respectively.
Mean concentration-time data was used for pharmacokinetic analysis. […] Area under the curve (AUC) was calculated by log-linear trapezoidal rule to the end of sample collection (AUClast). […]

[7] = In vitro plasma stability, monkey plasma
MC38 cells [8] = assay: MC38 colon cancer tumor model; format: in vivo, C57BL/6 mice; conditions: for MC38 tumor response, monotherapy (words): 1 mg/kg followed by 0.3 mg/kg, 14 days, wild type mice; for rejection of tumor re-challenge by mice cured with monotherapy: MC38 rechallenge on opposite flank; for MC38 response in combination with anti-PD1: combination with anti-PD-1
Procedure: (§1) Tumor growth and survival experiments: Tumor injections were administered in the right flank. For the MC38 and MC38OVA models, C57BL/6 WT mice were injected with 5×10^5 MC38 or MC38OVA cells (s.c.) cultured in DMEM-based media. For the CT26 model, BALB/c mice were injected with 5×10^5 CT26 cells (s.c.) cultured in RPMI-based media. Compound 25 was dissolved in 2.5% ethanol in PBS (v/v) which was administered for all vehicle-treated control experiments. For MC38 and MC38OVA experiments, mice were treated with Compound 25 or vehicle by daily gavage with 1 mg/kg/day in 100 uL for days 10-14 and with 0.3 mg/kg/day for day 15-24. For CT26 experiments, mice were treated with compound 25 or vehicle by daily gavage with 1 mg/kg/day in 100 uL for days 7-11 and with 0.3 mg/kg/day for day 12-21.

EO771 cells = assay: EO771 breast cancer model; format: in vivo, C57BL/6 mice
Procedure: Mouse: C57BL/6 (both male and female mice, 6-8 weeks of age) were purchased from Jackson Laboratories. The studies were conducted under a protocol approved by the Johns Hopkins Animal Care and Use Committee.
Cell Line: EO771 breast cancer cell lines were purchased from CH3 BioSystems.
Treatment with immunotherapy alone or combined immunotherapy with compound 25: On days 9, 12, and 15, mice were injected with or without 100 μg anti-PD1 alone or 100 μg anti-PD1 in combination with 100 μg anti-CTLA4, followed by treatment with or without compound 25. Each individual mouse tumor growth and survival curves were recorded.

4T1 tumor cells = assay: 4T1 breast cancer model; conditions: for 4T1 tumor growth and survival, monotherapy (words): 1 mg/kg daily
EL4 lymphoma = assay: EL4 mouse lymphoma model; format: in vivo; conditions: monotherapy
B16 melanoma = B16 melanoma mouse model; format: in vivo; conditions: monotherapy
[9] = microsomes
[10] = microsomes; remark: listed apart in the source
B16-OVA melanoma cells = assay: B16-OVA melanoma model with adoptive cellular therapy; format: in vivo, C57BL/6 mice; conditions: 1 mg/kg/day days 7-9 before transfer on day 10
Procedure: Adoptive Cellular Therapy: OVA-expressing B16 melanoma model, C57BL/6 WT mice received a s.c. injection of 2×10^5 B16-OVA melanoma cells cultured under OVA selection media containing 400 μg/ml G418 (Life technologies). Mice were treated with compound 25 or vehicle by daily gavage with 1 mg/kg/day in 100 uL for days 7-9 post tumor inoculation. Ten days after tumor injection, mice received an adoptive transfer of 1.5×10^6 activated OT1 cells, which had been stimulated in vitro with […] peptide for 48 h, expanded in IL-2 (1 ng/mL) for 24 h and isolated with Ficol gradient centrifugation. Mice were randomized based on tumor size before transfer of activated OT1 cells for adoptive transfer experiments. Tumor burden was assessed every 2-4 days by measuring length and width of tumor. Tumor volume was calculated using the formula V=(L×W×W)/2, where V is tumor volume, W is tumor width, and L is tumor length. Mice were sacrificed when tumor reached 2 cm in any dimension, became ulcerate or necrotic, or caused functional deficits.

MC38 cells [11] = assay: MC38 colon cancer tumor model; format: in vivo, C57BL/6 mice; conditions: growth rate recovered after several days
CT26 cells = assay: CT26 colon cancer tumor model; format: in vivo, BALB/c mice; conditions: for CT26 anti-tumor response in combination with anti-PD1: combination with anti-PD-1
Procedure: as §1

3LL cells = assay: 3LL tumor model; format: in vivo, C57BL/6J mice
Description: 5×10^6 3 LL cells were implanted subcutaneously into the right flank in C57BL/6J male mice.

[12] = Table 2, prodrug 10 μM, 60 min incubation at 37° C., values read as % prodrug remaining
[13] = 1 mg/kg daily day 7 to 16, tumors evaluated day 21

In the case of `CC(C)OC(=O)[C@H](CCC(=O)C=[N+]=[N-])NC(=O)O[C@H](C)OC(=O)C(C)(C)C` (single isomer, unassigned) [Compound 14b], the “stability in pig plasma” value [1] is reported as “stable”, the “CSF delivery of DON” value [2] is reported as “substantially higher amounts of DON; also recorded: enhanced CSF delivery of DON” and the “CSF-to-plasma ratio of DON” value [2] is reported as “increased CSF-to-plasma ratios; also recorded: enhanced CSF:plasma ratio of DON”. The “stability in human plasma” value [3] was “stable”, the PLASMA STABILITY Human [3, 12] was 91% and the “stability in human plasma” value ([3]; listed as 5c) was “stable; also recorded: excellent stability”. The “metabolism in mouse plasma” value [4] was “rapidly metabolized”, the PLASMA STABILITY Mouse [4, 12] was 0% and the “metabolism in mouse plasma” value ([4]; listed as 5c) was “completely converted to DON”. The “stability in dog plasma” value [5] was “stable”, the “CSF:plasma ratio of DON” value [6] was “enhanced CSF:plasma ratio of DON” and the “stability in monkey plasma” value [7] was “stable”. The PLASMA STABILITY Monkey [7, 12] was 61% and the “stability in monkey plasma” value ([7]; listed as 5c) was “stable; also recorded: excellent stability”.

With `CCOC(=O)[C@H](CCC(=O)C=[N+]=[N-])NC(=O)[C@@H](N)CC(C)C` [Compound 25] the “MC38 tumor response, monotherapy (words)” value (MC38 cells [8]) was “complete and durable response”, the “MC38 tumor response, monotherapy (words)” value (MC38 cells [8]; listed as compound 25) was “marked decrease in tumor growth; also recorded: durable cures; also recorded: significant control of the tumor including complete regression in a proportion of the mice” and the “rejection of tumor re-challenge by mice cured with monotherapy” value (MC38 cells [8]) was “immunologically reject tumors upon re-challenge”. For the same compound, the “rejection of tumor re-challenge by mice cured with monotherapy” value (MC38 cells [8]; listed as compound 25) was “More than three-quarters”, the “MC38 response in combination with anti-PD1” value (MC38 cells [8]) was “conditions tumors to be eliminated by anti-PD1 therapy; also recorded: rescues anti-PD1 failures” and the “MC38 response in combination with anti-PD1” value (MC38 cells [8]; listed as compound 25) was “unexpected increase in both tumor regression and complete responses”. For the same compound, the “EO771 tumor growth and survival, single agent” value (EO771 cells; agent alone) was “delayed tumor growth and increased survival”, the “EO771 tumor growth and survival, combination with anti-PD-1” value (EO771 cells; compound 25 + anti-PD-1) was “surprising increase in inhibition of tumor growth and survival” and the “4T1 tumor growth and survival, monotherapy (words)” value (4T1 tumor cells) was “robust response and improved overall survival”. The “CD11b+ cells and G-MDSCs in circulating blood” value (4T1 tumor cells; 1 mg/kg daily day 7 to 16, flow cytometry days 6, 9, 17) was “reduced CD11b+ cells and G-MDSCs”, the “TNF alpha in tumor associated macrophages” value (4T1 tumor cells; [13]) was “increased TNF alpha” and the fibrocytes in tumor (4T1 tumor cells; [13]) was “reduced fibrocytes”. The “4T1-Luc tumor luminescence, comparison with anti-PD1” value (4T1 tumor cells; 1 mg/kg daily from day 7, IVIS imaging day 13) was “inhibited mammary carcinoma cell proliferation better than anti-PD1”, the “4T1 tumor growth and survival, monotherapy (words)” value (4T1 tumor cells; listed as compound 25) was “inhibited the growth of mammary carcinoma tumor cells; also recorded: modest decrease in tumor growth” and the spontaneous lung metastasis (4T1 tumor cells; 1 mg/kg from day 7, then 0.3 mg/kg, lungs harvested day 30) was “significantly reduces lung metastasis”. The “4T1 breast cancer model, comparison with CB-839” value (4T1 tumor cells; 25 daily days 7-22 (1.0 mg/kg/d) vs CB-839 BID days 1-29) was “superior to CB-839”, the “4T1 tumor growth and survival, combination with anti-PD1 and anti-CTLA4” value (4T1 tumor cells; compound 25 + anti-PD1 + anti-CTLA-4) was “substantial decrease of tumor growth and increase in survival time” and the “lymphoma tumor growth” value (EL4 lymphoma) was “marked decrease in tumor growth”. For the same compound, the “melanoma tumor growth” value (B16 melanoma) was “marked decrease in tumor growth”, the “liver microsomal stability, pig” value [9] was “moderate-high stability” and the “liver microsomal stability, human” value [10] was “moderate-high stability”. For the same compound, the “tumor control and survival with adoptive transfer of activated OT1 T cells” value (B16-OVA melanoma cells) was “unexpected improvement in tumor control and survival”, the “MC38 tumor growth in RAG2−/− mice” value (MC38 cells [11]) was “some initial effect on tumor growth” and the “CT26 tumor model, comparison with CB-839” value (CT26 cells; 25 short daily course vs CB-839 continuous BID dosing) was “superior to CB-839”. The “CT26 anti-tumor response in combination with anti-PD1” value (CT26 cells) was “unexpectedly enhances the response to anti-PD1”, the “CT26 anti-tumor response in combination with anti-PD1” value (CT26 cells; listed as compound 25) was “significant anti-tumor responses” and the “CT26 tumor response and survival, monotherapy (words)” value (CT26 cells) was “robust response and improved overall survival”. For the same compound, the “CT26 tumor response and survival, monotherapy (words)” value (CT26 cells; listed as compound 25) was “marked decrease in tumor growth”, the 3LL tumor growth (3LL cells; 1 mg/kg from day 7, then 0.3 mg/kg) was “reduced tumor growth” and the “ratio of CD8 cells to MDSCs+ and TANs, blood and TIL” value (3LL cells; 3LL tumor-bearing mice) was “increased ratio of CD8 cells to MDSCs+ and TANs”.
